From patent publication US12655130B2 (ASSEMBLY BIOSCIENCES, INC., priority 2020, dated 2026) come the findings set out here.

pEC50: −log10 of the molar value.

The first assay concerns HBV viral load (viral production from HepAD38 cells). Put plainly: Activity of test compounds on viral production from HepAD38 cells (viral load by qPCR of HBV core sequence). It counts as cell-based. The conditions noted are these: Hepatitis B virus, HePAD38, 120 h, viral load lowering, 5 days, qPCR of supernatant, read-out: VL HepAD38 EC50 range. The procedure, abridged:
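EC50 and CC50 come from four-parameter logistic fits: HBV core DNA in supernatant by TaqMan qPCR against DNA standards, normalised to DMSO controls, and cell viability by CellTiter-Glo. Cells were plated at 50,000/well without tetracycline (2% FBS) and exposed to compounds (highest 10 μM) for 5 days, 37 °C.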
Background: Quantitative PCR measures a nucleic acid by following its amplification.
Take `Cn1cc(F)c(C2(O)CC3CC(c4ncn(C)c4C(=O)Nc4ccc(F)c(Cl)c4)CC3C2)n1` (stereo not drawn) [Example 136, N-(3-chloro-4-fluorophenyl)-4-(5-(4-fluoro-1-methyl-1H-pyrazol-3-yl)-5-hydroxyoctahydropentalen-2-yl)-1-methyl-1H-imidazole-5-carboxamide]: the negative-log EC50 (pEC50) is over 8.00.

Turning to `[2H]C([2H])([2H])C1(O)CC2CC(c3ncn(C)c3C(=O)Nc3ccc(F)c(Cl)c3)CC2C1` (single isomer, unassigned) [Example 80, N-(3-Chloro-4-fluorophenyl)-4(5-hydroxy-5-(methyl-d3)octahydropentalen-2-yl)-1-methyl-1H-imidazole-5-carboxamide], the negative-log EC50 (pEC50) is 6.30 to 7.30. As for `Cn1cnc(C2CC3CC(O)(c4cc(C(N)=O)nn4C)CC3C2)c1C(=O)Nc1ccc(F)c(Cl)c1` (stereo not drawn) [Example 176, 5-(5-(5-((3-Chloro-4-fluorophenyl)carbamoyl)-1-methyl-1H-imidazol-4-yl)-2-hydroxyoctahydropentalen-2-yl)-1-methyl-1H-pyrazole-3-carboxamide], the negative-log EC50 (pEC50) was over 8.00. On to `O=C1CC2CC(c3ncsc3C(=O)Nc3ccc(F)c(Cl)c3)CC2C1` (stereo not drawn) [Example 38, N-(3-Chloro-4-fluorophenyl)-4-(5-oxooctahydropentalen-2-yl)thiazole-5-carboxamide], for which the pEC50 is over 8.00. Regarding `Cn1cnc(C2CC3CC(O)(c4n[nH]cc4C(F)F)CC3C2)c1C(=O)Nc1ccc(F)c(Cl)c1` (stereo not drawn) [Example 169, N-(3-Chloro-4-fluorophenyl)-4-(5-(4-(difluoromethyl)-1H-pyrazol-3-yl)-5-hydroxyoctahydropentalen-2-yl)-1-methyl-1H-imidazole-5-carboxamide], the negative logarithm of the EC50 (pEC50) was over 8.00. Take `CCn1cc(C2(O)CC3CC(c4ncn(C)c4C(=O)Nc4ccc(F)c(Cl)c4)CC3C2)c(C(F)F)n1` (stereo not drawn) [Example 162, N-(3-Chloro-4-fluorophenyl)-4-(5-(3-(difluoromethyl)-1-ethyl-1H-pyrazol-4-yl)-5-hydroxyoctahydropentalen-2-yl)-1-methyl-1H-imidazole-5-carboxamide]: the negative-log EC50 (pEC50) is over 8.00. The same measure, in the same setting: next, `Cn1cnc(C2CC3CC(O)(c4cc(C(C)(C)O)nn4C)CC3C2)c1C(=O)Nc1ccc(F)c(Cl)c1` (stereo not drawn) [Example 59, N-(3-Chloro-4-fluorophenyl)-4-(5-hydroxy-5-(3-(2-hydroxypropan-2-yl)-1-methyl-1H-pyrazol-5-yl)octahydropentalen-2-yl)-1-methyl-1H-imidazole-5-carboxamide]: over 8.00; `Cn1cnc(C2CC3CC(O)(c4c(F)c(OCCO)nn4C)CC3C2)c1C(=O)Nc1ccc(F)c(Cl)c1` (stereo not drawn) [Example 213, N-(3-Chloro-4-fluorophenyl)-4-(5-(4-fluoro-3-(2-hydroxyethoxy)-1-methyl-1H-pyrazol-5-yl)-5-hydroxyoctahydropentalen-2-yl)-1-methyl-1H-imidazole-5-carboxamide]: over 8.00. Take `Cn1cnc(C2CC3CC(O)(c4c(F)c(C(C)(C)O)nn4C)CC3C2)c1C(=O)Nc1ccc(F)c(Cl)c1` (stereo not drawn) [Example 66, N-(3-Chloro-4-fluorophenyl)-4-(5-(4-fluoro-3-(2-hydroxypropan-2-yl)-1-methyl-1H-pyrazol-5-yl)-5-hydroxyoctahydropentalen-2-yl)-1-methyl-1H-imidazole-5-carboxamide]: the pEC50 was over 8.00. As for `Cn1cnc(C2CC3CC(O)(c4cc[nH]n4)CC3C2)c1C(=O)Nc1ccc(F)c(Cl)c1` (stereo not drawn) [Example 116, N-(3-chloro-4-fluorophenyl)-4-(5-hydroxy-5-(1H-pyrazol-3-yl)octahydropentalen-2-yl)-1-methyl-1H-imidazole-5-carboxamide], the pEC50 was over 8.00. In the case of `CCn1nc(N)c(Cl)c1C1(O)CC2CC(c3ncn(C)c3C(=O)Nc3ccc(F)c(Cl)c3)CC2C1` (stereo not drawn) [Example 168, 4-(5-(3-Amino-4-chloro-1-ethyl-1H-pyrazol-5-yl)-5-hydroxyoctahydropentalen-2-yl)-N-(3-chloro-4-fluorophenyl)-1-methyl-1H-imidazole-5-carboxamide], the pEC50 was 7.30 to 8.00.

As for `Cn1cc(C2(O)CC3CC(c4ncn(C)c4C(=O)Nc4ccc(F)c(Cl)c4)CC3C2)cn1` (stereo not drawn) [Example 121, N-(3-chloro-4-fluorophenyl)-4-(5-hydroxy-5-(1-methyl-1H-pyrazol-4-yl)octahydropentalen-2-yl)-1-methyl-1H-imidazole-5-carboxamide], the negative-log EC50 (pEC50) is over 8.00. `Cn1cc(C2(O)CC3CC(c4ncn(C)c4C(=O)Nc4ccc(F)c(Cl)c4)CC3C2)c(Br)n1` (stereo not drawn) [Example 182, 4-(5-(3-Bromo-1-methyl-1H-pyrazol-4-yl)-5-hydroxyoctahydropentalen-2-yl)-N-(3-chloro-4-fluorophenyl)-1-methyl-1H-imidazole-5-carboxamide]: the pEC50 is over 8.00.

For the molecule `Cn1cnc(C2CC3CC(O)(c4cc(O)nn4C)CC3C2)c1C(=O)Nc1ccc(F)c(Cl)c1` (stereo not drawn) [Example 53, N-(3-Chloro-4-fluorophenyl)-4-(5-hydroxy-5-(3-hydroxy-1-methyl-1H-pyrazol-5-yl)octahydropentalen-2-yl)-1-methyl-1H-imidazole-5-carboxamide], the pEC50 is over 8.00.

Turning to `CCn1nc(N)cc1C1(O)CC2CC(c3ncn(C)c3C(=O)Nc3ccc(F)c(Cl)c3)CC2C1` (stereo not drawn) [Example 76], the negative-log EC50 (pEC50) is over 8.00.

Regarding `Cn1cnc(C2CC3CC(O)(c4cc(Cl)nn4C)CC3C2)c1C(=O)Nc1ccc(F)c(Cl)c1` (single isomer, unassigned) [Example 73, 4-(5-(3-Chloro-1-methyl-1H-pyrazol-5-yl)-5-hydroxyoctahydropentalen-2-yl)-N-(3-chloro-4-fluorophenyl)-1-methyl-1H-imidazole-5-carboxamide], the negative-log EC50 (pEC50) was over 8.00. With `Cn1cnc(C2CC3CC(O)(Cn4cccn4)CC3C2)c1C(=O)Nc1ccc(F)c(Cl)c1` (single isomer, unassigned) [Example 128, 4-(5-((1H-pyrazol-1-yl)methyl)-5-hydroxyoctahydropentalen-2-yl)-N-(3-chloro-4-fluorophenyl)-1-methyl-1H-imidazole-5-carboxamide], the pEC50 is over 8.00. As for `Cn1cnc(C2CC3CC(O)(C(F)(F)F)CC3C2)c1C(=O)Nc1ccc(F)c(Cl)c1` (stereo not drawn) [Example 12, N-(3-Chloro-4-fluorophenyl)-4-(5-hydroxy-5-(trifluoromethyl)octahydropentalen-2-yl)-1-methyl-1H-imidazole-5-carboxamide], the pEC50 is over 8.00. Consider `CCn1cc(C(F)(F)F)c(C2(O)CC3CC(c4ncn(C)c4C(=O)Nc4ccc(F)c(Cl)c4)CC3C2)n1` (stereo not drawn) [Example 159, N-(3-Chloro-4-fluorophenyl)-4-(5-(1-ethyl-4-(trifluoromethyl)-1H-pyrazol-3-yl)-5-hydroxyoctahydropentalen-2-yl)-1-methyl-1H-imidazole-5-carboxamide], for which the pEC50 is over 8.00. Consider `CC(C)n1nc(N)cc1C1(O)CC2CC(c3ncn(C)c3C(=O)Nc3ccc(F)c(Cl)c3)CC2C1` (stereo not drawn) [Example 77, 4-(5-(3-Amino-1-Isopropyl-1H-pyrazol-5-yl)-5-hydroxyoctahydropentalen-2-yl)-N-(3-chloro-4-fluorophenyl)-1-methyl-1H-imidazole-5-carboxamide], for which the pEC50 was over 8.00. For the molecule `Cn1cc(Br)c(C2(O)CC3CC(c4ncn(C)c4C(=O)Nc4ccc(F)c(Cl)c4)CC3C2)n1` (stereo not drawn) [Example 117, 4-(5-(4-bromo-1-methyl-1H-pyrazol-3-yl)-5-hydroxyoctahydropentalen-2-yl)-N-(3-chloro-4-fluorophenyl)-1-methyl-1H-imidazole-5-carboxamide], the pEC50 is over 8.00. For `Cn1cnc(C2CC3CC(O)(c4c(C(N)=O)cnn4C)CC3C2)c1C(=O)Nc1ccc(F)c(Cl)c1` (stereo not drawn) [Example 126, 5-(5-(5-((3-chloro-4-fluorophenyl)carbamoyl)-1-methyl-1H-imidazol-4-yl)-2-hydroxyoctahydropentalen-2-yl)-1-methyl-1H-pyrazole-4-carboxamide], the negative logarithm of the EC50 (pEC50) is over 8.00. For the molecule `O=C(Nc1ccc(F)c(Cl)c1)c1c(C2CC3CC(O)CC3C2)nc2n1CCC2` (single isomer, unassigned) [Example 32, N-(3-Chloro-4-fluorophenyl)-2-(5-hydroxyoctahydropentalen-2-yl)-6,7-dihydro-5H-pyrrolo[1,2-a]imidazole-3-carboxamide], the pEC50 is 7.30 to 8.00. Same read-out and setting: next, `Cn1cnc(C2CC3CC(O)CC3C2)c1C(=O)Nc1ccc(F)c(Cl)c1` (single isomer, unassigned) [Example 2, N-(3-Chloro-4-fluorophenyl)-4-(5-hydroxyoctahydropentalen-2-yl)-1-methyl-1H-imidazole-5-carboxamide]: over 8.00; `Cc1cc(C2(O)CC3CC(c4ncn(C)c4C(=O)Nc4ccc(F)c(Cl)c4)CC3C2)n(C)n1` (single isomer, unassigned) [Example 71, N-(3-Chloro-4-fluorophenyl)-4-(5-(1,3-dimethyl-1H-pyrazol-5-yl)-5-hydroxyoctahydropentalen-2-yl)-1-methyl-1H-imidazole-5-carboxamide]: over 8.00.

The assay is the same for the next values; noted with them: viral load lowering, 5 days, qPCR of supernatant, read-out: VL HepAD38 EC50 range.
With `Cn1cnc(C2CC3CC(O)(c4cc(OCC(O)CO)nn4C)CC3C2)c1C(=O)Nc1ccc(F)c(Cl)c1` (single isomer, unassigned) [Example 206, N-(3-Chloro-4-fluorophenyl)-4-(5-(3-(2,3-dihydroxypropoxy)-1-methyl-1H-pyrazol-5-yl)-5-hydroxyoctahydropentalen-2-yl)-1-methyl-1H-imidazole-5-carboxamide], the pEC50 was over 8.00. Same read-out and setting: next, `Cn1cnc(-c2ccc(C3CCC(c4ncn(C)c4C(=O)Nc4ccc(F)c(Cl)c4)C3)cc2)c1` (stereo not drawn) [Example 15, N-(3-Chloro-4-fluorophenyl)-1-methyl-4-(3-(4-(1-methyl-1H-imidazol-4-yl)phenyl)cyclopentyl)-1H-imidazole-5-carboxamide]: over 8.00.

In general, pEC50 refers to the negative decadic logarithm of the EC50, by convention in mol/L.
